In patent publication US4073883A, “Method for treatment of impaired hearing” (priority 1976, dated 1978):

Experiments:
rats of Wistar strain [1] = experiment: Acute toxicity test in rats (single dose, 7 days observation); assay type: in vivo; details: for Maximum dose (no case of deaths): 7 days
Source text: (§1) In order to evaluate the acute toxicity of a single high dose administration of Coenzyme Q10, male and female rats of Wistar strain and male and female mice of ICR-JCL strain were used, and oral, intramuscular, subcutaneous, and intravenous administrations were studied. For the oral administration of Coenzyme Q10, gum Arabic suspension was used. For the intramuscular, subcutaneous and intravenous administrations, Coenzyme Q10 was used as its solution in a nonionic surfactant, Nikkol HCO-60. Nikkol HCO-60 is a trade name of a non-ionic surfactant comprised of hydrogenated castor oil/polyoxyethylene-60 mole ether available from Nikko Chemicals, Co. Ltd., Japan.
(§2) Observations were carried out for 7 days by using six males and six females for each dose group.

mice of ICR-JCL strain = experiment: Acute toxicity test in mice (single dose, 7 days observation); assay type: in vivo; details: for Maximum dose (no case of deaths): 7 days
Source text: as §1, §2

rats of Wistar strain [2] = experiment: Subacute oral toxicity test in rats (5 weeks); assay type: in vivo
Experimental: Coenzyme Q10 was compulsorily and orally administered every day for 5 weeks to each group consisting of 10 male rats and 10 female rats of Wistar strain. The dose was 40, 200, and 1000 mg/Kg/day, respectively. Coenzyme Q10 was used in the form of gum Arabic suspension, while the solution containing gum Arabic alone was used as the control group. Collection of blood and urine samples and autopsies were carried out 5 weeks after the initiation of administration.

rabbits = experiment: Subacute oral toxicity test in rabbits (23 days); assay type: in vivo
Experimental: Coenzyme Q10 was compulsorily and orally administered every day for 23 days to each group consisting of 6 male rabbits and 5 female rabbits. The dose was 6, 60 and 600 mg/Kg/day, respectively. Coenzyme Q10 was used in the form of gum Arabic suspension, whereas the solution containing gum Arabic alone was used as the control group. On the 24th day, blood samples were collected from all the animals, and 3 males and 2 females from each group were then selectively autopsied.

rats of Wistar strain [3] = experiment: Chronic oral toxicity test in rats (26 weeks); assay type: in vivo
Experimental: Coenzyme Q10 was compulsorily and orally administered to each group consisting of 10 male rats and 10 female rats of Wistar strain for 26 consecutive weeks in a ratio of 6 days a week. The dose was 6, 60 and 600 mg/Kg/day, respectively. Coenzyme Q10 was used in the form of gum Arabic suspension, whereas the solution containing gum Arabic alone is used as the control group. Collection of blood and urine samples and autopsies were carried out 26 weeks after the administration.

rats = experiment: Teratogenesis test in rats; assay type: in vivo; details: 6, 60 and 600 mg/Kg/day
mice = experiment: Teratogenesis test in mice; assay type: in vivo; details: 6, 60 and 600 mg/Kg/day
[4] = system: patients having impaired hearing caused by administration of a drug; experiment: Clinical test on the administration of Coenzyme Q10 for impaired hearing (audiometry); assay type: in vivo, human
Experimental: 30 Mg/day of Coenzyme Q10 was administered perorally three times a day after meal. Duration of administration differed with patients in the range of from two weeks to four months.
Coenzyme Q10 was administered to 9 patients having impaired hearing caused by administration of a drug (an antibiotic called poison against hearing organs). 8 of 9 patients were being administered with some poison against hearing organs at the time of the first medical examination of otorhinology. The remaining one patient was given streptomycin more than 10 years before then. It was pointed out that labyrinthine disorder was observed already and the administration of the poisons against hearing organs was discontinued in 5 of the 8 cases. In the remaining 3 cases, the treatment of the diseases with the poisons against hearing organs was continued with administration of Coenzyme Q10.
In many cases, a combination of drugs such as combination of streptomycin (SM) with kanamycin (KM), kanendomycin (KDM) or gentamycin (GM) had been used.
Determination of hearing acuity threshold value in air conduction and bone conduction and recruitment test were effected using an audiometer in a sound-proof chamber.
The sum of the air conduction threshold value was determined in terms of decibel units and the values before and after the administration of Coenzyme Q10 were compared with each other.
Air condition region values at 125 Hz, 250 Hz, 1 KHz, 2 KHz, 4 KHz and 8 KHz in audiogram were added together to obtain a value called the total region value at that time. In case the difference in the value between before and after the administration of Coenzyme Q10 is more than ± 35 db, it was judged to be improved or worsened and in case the difference is within 35 db, it was judged to be unchanged. In case a threshold value of a certain frequency is scaled out, a value of the maximum output at that frequency plus 5 db. was employed.

[5] = intramuscular, in Nikkol HCO-60, single dose
[6] = intravenous, in Nikkol HCO-60, single dose
[7] = oral, gum Arabic suspension, single dose
[8] = relative to maximum doses of Table 1
[9] = subcutaneous, in Nikkol HCO-60, single dose
[10] = 6, 60, 600 mg/Kg/day oral, 23 days
[11] = attributed to spontaneous pneumonia and aspiration pneumonia due to an erroneous administration

Question: Which “toxicity (overall, acute)” value (rats of Wistar strain [1]; acute, overall) does the source give for `COC1=C(OC)C(=O)C(C/C=C(\C)CC/C=C(\C)CC/C=C(\C)CC/C=C(\C)CC/C=C(\C)CC/C=C(\C)CC/C=C(\C)CC/C=C(\C)CC/C=C(\C)CCC=C(C)C)=C(C)C1=O` [Coenzyme Q10] here?
Answer: extremely low

Question: What about the “Maximum dose (no case of deaths)” value (rats of Wistar strain [1]; [5]) of the same compound?
Answer: 500 mg/kg

Question: What about the “Maximum dose (no case of deaths)” value (rats of Wistar strain [1]; [6]) of the same compound?
Answer: 250 mg/kg

Question: And the deaths (rats of Wistar strain [1]; maximum dose in each route)?
Answer: no case of deaths

Question: What about the “Maximum dose (no case of deaths)” value (rats of Wistar strain [1]; [7]) of the same compound?
Answer: 4000 mg/kg

Question: What about the LD50 (rats of Wistar strain [1]; [8]) of the same compound?
Answer: far higher than the maximum dose

Question: What about the “Maximum dose (no case of deaths)” value (rats of Wistar strain [1]; [9]) of the same compound?
Answer: 500 mg/kg

Question: What about the “toxicity (overall, acute)” value (mice of ICR-JCL strain; acute, overall) of the same compound?
Answer: extremely low

Question: And the “Maximum dose (no case of deaths)” value (mice of ICR-JCL strain; [5])?
Answer: 500 mg/kg

Question: And the “Maximum dose (no case of deaths)” value (mice of ICR-JCL strain; [6])?
Answer: 250 mg/kg

Question: What about the deaths (mice of ICR-JCL strain; maximum dose in each route) of the same compound?
Answer: no case of deaths

Question: What about the “Maximum dose (no case of deaths)” value (mice of ICR-JCL strain; [7]) of the same compound?
Answer: 4000 mg/kg

Question: What about the LD50 (mice of ICR-JCL strain; [8]) of the same compound?
Answer: far higher than the maximum dose

Question: What about the “Maximum dose (no case of deaths)” value (mice of ICR-JCL strain; [9]) of the same compound?
Answer: 500 mg/kg

Question: What about the “general condition and body weight vs control” value (rats of Wistar strain [2]; 40, 200, 1000 mg/Kg/day oral, 5 weeks) of the same compound?
Answer: no difference

Question: What about the “dead animals during the experiment” value (rats of Wistar strain [2]; attributed to spontaneous pneumonia and aspiration pneumonia due to an error of administration) of the same compound?
Answer: 4 animals

Question: What about the “toxicity seemingly due to the administration” value (rats of Wistar strain [2]; subacute oral, 5 weeks, overall) of the same compound?
Answer: there was not recognized the toxicity

Question: What about the “general condition and increase of body weight vs control” value (rabbits; [10]) of the same compound?
Answer: no difference

Question: And the “weight of each organ” value (rabbits; [10])?
Answer: no effect

Question: What about the “electron-microscopic observation of liver” value (rabbits; 7th, 14th, and 24th days after the administration) of the same compound?
Answer: there were not recognized abnormal findings

Question: And the findings suggesting toxicity (rabbits; subacute oral, 23 days, overall)?
Answer: there were not recognized the findings

Question: And the “body weight vs control” value (rats of Wistar strain [3]; 6, 60, 600 mg/Kg/day oral, 26 weeks)?
Answer: increased as same as that of the control group

Question: What about the “general condition vs control” value (rats of Wistar strain [3]; 6, 60, 600 mg/Kg/day oral, 26 weeks, 6 days a week) of the same compound?
Answer: no difference

Question: What about the “biochemical tests of blood and urine vs control” value (rats of Wistar strain [3]; 26 weeks) of the same compound?
Answer: No significant changes were recognized

Question: And the weight of organs (rats of Wistar strain [3]; 26 weeks)?
Answer: no significant increase and decrease

Question: And the “deaths, females” value (rats of Wistar strain [3]; [11])?
Answer: 3 females

Question: What about the “deaths, males” value (rats of Wistar strain [3]; [11]) of the same compound?
Answer: 11 males

Question: And the toxicity (rats of Wistar strain [3]; chronic oral, 26 weeks, overall)?
Answer: no toxicity was observed

Question: What about the “macroscopical and histological observation vs control” value (rats of Wistar strain [3]; hemoxylin.Eosine staining and liver fat staining, 26 weeks) of the same compound?
Answer: abnormalities were not recognized

Question: And the leukocytal percentages (rats of Wistar strain [3]; not dose related, within the extent of physiological fluctuations)?
Answer: some increase and decrease

Question: And the “adverse effects in mothers, fetuses, and newborns” value (rats)?
Answer: no adverse effects

Question: What about the “adverse effects in mothers, fetuses, and newborns” value (mice) of the same compound?
Answer: no adverse effects

Question: And the “effectiveness as a medicament for treating impaired hearing” value ([4]; overall conclusion)?
Answer: effective as a medicament for treating impaired hearing

Question: And the “ears improved (number of 18 ears)” value ([4]; with Coenzyme Q10, of 18 ears)?
Answer: 13 ears

Question: What about the “ears improved (percent)” value ([4]; with Coenzyme Q10, of 18 ears) of the same compound?
Answer: 72%

Question: And the “ears unchanged (number of 18 ears)” value ([4]; with Coenzyme Q10, of 18 ears)?
Answer: 5 ears

Question: What about the “ears unchanged (percent)” value ([4]; with Coenzyme Q10, of 18 ears) of the same compound?
Answer: 28%

Question: And the worsening ([4]; with Coenzyme Q10, of 18 ears)?
Answer: no worsening being observed
